± gives the expanded uncertainty stated by the source.
Conditions: Liquid, Ebulliometric method (Recirculating still)

CCOC(=O)OCC [diethyl carbonate]
Conditions | vapor or sublimation pressure [kPa]
354.68 K | 22.56 ± 0.11
357.44 K | 25.03 ± 0.11
359.95 K | 27.54 ± 0.11
362.26 K | 29.99 ± 0.11
364.46 K | 32.51 ± 0.11
366.57 K | 35.05 ± 0.11
368.45 K | 37.52 ± 0.11
370.28 K | 40.03 ± 0.11
372.04 K | 42.49 ± 0.12
373.73 K | 45.05 ± 0.12
375.26 K | 47.47 ± 0.12
376.81 K | 50.04 ± 0.12
378.22 K | 52.46 ± 0.12
379.67 K | 55.03 ± 0.12
381.03 K | 57.56 ± 0.13
382.32 K | 59.95 ± 0.13
383.6 K | 62.52 ± 0.13
384.81 K | 64.97 ± 0.13
385.98 K | 67.44 ± 0.13
387.13 K | 70.02 ± 0.13
388.28 K | 72.51 ± 0.14
389.32 K | 74.96 ± 0.14
390.35 K | 77.43 ± 0.14
391.39 K | 79.97 ± 0.14
392.45 K | 82.52 ± 0.14
393.34 K | 84.84 ± 0.15
394.36 K | 87.52 ± 0.15
395.23 K | 89.81 ± 0.15
396.21 K | 92.53 ± 0.15
397.03 K | 94.89 ± 0.15
397.96 K | 97.54 ± 0.15
398.81 K | 100.03 ± 0.16
399.27 K | 101.38 ± 0.16

From the NIST ThermoML archive (doi:10.1021/je200784y)
